Experimental data taken from patent US20220267753A1, “RATIONAL THERAPEUTIC TARGETING OF ONCOGENIC IMMUNE SIGNALING STATES IN MYELOID MALIGNANCIES VIA THE UBIQUITIN CONJUGATING ENZYME UBE2N” (CHILDREN'S HOSPITAL MEDICAL CENTER, priority 2019, published 2022).

Tests used:
[1] = system: AML cells (THP-1, MOLM-13, OCI-AML2, OCI-AML3, MDSL); test: Colony formation (clonogenic) assay in AML/MDS cell lines; format: cell-based, human; settings: 2 μM
Procedure: In order to determine viability after UBE2N knockdown or inhibition, 1×10^6 AML cells were washed with PBS and mixed with pre-diluted APC-conjugated Annexin V (BD Pharmigen, Franklin Lakes, N.J.) and Propidium iodide (PI) (Invitrogen ThermoFisher 00-6990-42, Waltham, Mass.). Cells were stained at room temperature for 15 minutes and suspended in 0.5 ml of Annexin V incubation buffer (eBiosciences 88-8007-74, San Diego, Calif.) for analysis using a BD FACS Canto System (BD Biosciences, San Jose, Calif.). For UBE2N knockdown experiments, PI−/GFP+ cells were sorted using a MoFlo XDP sorter (Beckman Coulter, Brea, Calif.) and plated in methylcellulose (StemCell Technologies H4236, Vancouver, CA) at 1000 cells/ml in 35 mm culture dishes. For UBE2N inhibition experiments, cell lines were plated in methycellulose (StemCell Technologies H4236, Vancouver, CA) at the indicated concentrations of inhibitor. Cells were incubated at 37° C. and 5% CO2. Colonies were scored after 7 days in culture. For UBE2N or UBE2N C87S overexpression experiments, MOLM-13 cells were transduced with lentivectors overexpressing UBE2N wild type or mutant in the presence of polybrene (8 μg/ml). […] Colonies were scored at 7 days. […] Colonies were manually scored at 14-16 days after plating or counted with STEMVision (StemCell Technologies, Vancouver, CA).

[2] = system: MOLM-13 cells; test: MTS assay of MOLM-13 cells overexpressing UBE2N wild type or UBE2N C87S; format: cell-based, human
From the text: For knockdown studies, UBE2N shRNA template oligonucleotides from the TRC shRNA library cloned into the pLKO.1 TRC cloning vector (Addgene: #10878) and pLKO.1 TRC cloning vector (Table 3). The puromycin gene in pLKO.1 was replaced with GFP. pLKO.1 TRC control was used as non-silencing control (Addgene: #10879). For production of lentiviral particles, lentiviral shRNA expression constructs were transfected together with packaging vectors into 293T producer cells using TransIT transfection reagent (Mirus, MIR 2306), supernatants were harvested after 48 and 72 hours, and concentrated by ultracentrifugation. […] UBE2N knockdown efficiency was determined by quantitative real time PCR (qRT-PCR) and western blot and quantified as described elsewhere. […] Levels of overexpression of UBE2N were determined by western blot.
AML cell lines (5×10^3 cells/well) were seeded in 96-well plates and grown for 24 to 96 h in serum (10%)-containing medium in the presence or absence of inhibitors at the indicated concentrations. Proliferation was analyzed by means of an MTS assay using the CellTiter 96 Aqueous One Solution Cell Proliferation Assay (Promega, Madison, Wis., USA), according to the manufacturer's instructions. […] For the screening of 160 compounds from the UC library, the cell metabolic activity was assessed at 24 hours of treatment of MOLM-13 cells. […]

CCc1ccc(C(=O)C=CSc2nc3ccc(C)cc3[nH]2)cc1 [UC-764864, 1-(4-ethylphenyl)-3-[(6-methyl-1H-benzimidazol-2-yl)sulfanyl]prop-2-en-1-one]
reduction in colony formation vs vehicle [1]: 20-95% | viability of MOLM-13 cells expressing UBE2N(C87S) [2]: did not affect | viability of MOLM-13 cells expressing wild-type UBE2N [2]: significantly suppressed
